# Source: patent US11865119B2, “Methods of treating agitation and other dementia-associated behavioral symptoms” (Woolsey Pharmaceuticals, Inc., priority 2021, dated 2024)
# Key:
# [1] = tested on: agitation in patients with Alzheimer's Dementia (AD); assay: Clinical trial of oral fasudil in reducing agitation in patients with Alzheimer's Dementia (CMAI, NPI-Q); assay type: in vivo, human; settings: cutoff moved from 0 to 35 in 5-point increments; FIG. 3
# Experimental: All the patients were treated for 6 weeks with 90 mg per day (30 mg TID) and a subset of patients was treated an additional 6 weeks with 180 mg per day (60 mg TID). […] A variety of assessments were conducted at baseline and at the end of treatment, including the NPI-Q and the CMAI.
# Two baseline thresholds were set, and two analyses were done based on the two groupings that resulted. One threshold was based on the agitation/aggression domain of the NPI-Q and the other based on the CMAI score.
# The first selection was based on NPI-Q score of ≥4.
# The second selection required a baseline CMAI score of ≥20 and this yielded a 13-patient subgroup, having a mean baseline CMAI score of 34.4. […] All the patients selected using the NPI-Q agitation/aggression domain score of ≥4 were also included in this subgroup.
# The analysis looked at the CMAI score prior to treatment and compared it to the last day of treatment (6 weeks for the 10 patients on the low dose and 12 weeks for the 3 patients on the high dose).
# Finally, to examine the effects of changing the CMAI-C threshold, 5-point increments were used to move the cutoff from 0 to 35. […] It was concluded that setting the CMAI-C threshold of at least 5 provided a meaningful result over the population, even though higher thresholds we more powerful at detecting change.
# [2] = tested on: mice; settings: six-month old mice; 10 mg/kg oral gavage once a day for 30 days; assessed over final 3 days; vs water; cited from earlier work
compound,measurement,setting,value
O=S(=O)(c1cccc2cnccc12)N1CCCNCC1 [fasudil],effect of changing the baseline CMAI-C threshold on magnitude of observed effect,[1],"As the threshold increased, so did the magnitude of the observed effect"
same,amount of time spent in the open arms of the maze,[2],significantly reduced
